Values quoted from earlier work, collected in patent US6849589B2, “Cleaning composition” (3M Innovative Properties Company, priority 2001, dated 2005).

Conditions: in water, at about 20° C.

| SMILES | water solubility |
| --- | --- |
| CCCCCCCCN1CCCC1=O [N-octyl pyrrolidone] | about 0.124 weight percent |
| CCCCCCCCO [Example 1-octanol, 1-octanol] | about 0.1 weight percent |
| CC(C)CC(=O)CC(C)C [di-isobutyl ketone] | about 0.05 weight percent |
| CC(C)CCCCCO [isooctyl alcohol] | about 0.06 weight percent |
